Results from patent US20250296953A1, “3,4-THIAZOLO-STEROIDS AND METHODS OF MAKING AND USING THE SAME” (Arkansas State University - Jonesboro, priority 2018, published 2025).

Tests used:
NCI-H522 (NSCLC) = experiment: NCI 60 one dose screen; assay type: cell-based, human; details: Non-small Cell Lung Cancer
RPMI-8226 = experiment: NCI 60 five dose screen; details: RPMI-8226 (Leukemia), five dose
glioblastoma (SF-295) = experiment: NCI 60 five dose screen; details: SF-295 (CNS Cancer), five dose
[1] = system: 60 different human tumor cell lines; experiment: NCI Development Therapeutics Program 60 cell line screen, one dose; assay type: cell-based

C[C@]12CCc3nc(Nc4ccc(O)cc4)sc3C1=CC[C@@H]1[C@@H]2CC[C@]2(C)C(=O)CC[C@@H]12 [IIa.35]
Growth Percent (NCI-H522 (NSCLC)): −55.25%
GI50 (RPMI-8226): 2.35 µM
TGI (RPMI-8226): 7.07E−6
CC50 (RPMI-8226; read-out: LC50): > 100 µM
GI50 (glioblastoma (SF-295)): 5.26 µM
TGI (glioblastoma (SF-295)): 3.59E−5
CC50 (glioblastoma (SF-295); read-out: LC50): > 100 µM
Growth Percent ([1]; Breast Cancer, BT-549): 45.59%
Growth Percent ([1]; Breast Cancer, HS 578T): 53.60%
Growth Percent ([1]; Breast Cancer, MCF7): 3.11%
Growth Percent ([1]; Breast Cancer, MDA-MB-231/ATCC): 35.27%
Growth Percent ([1]; Breast Cancer, MDA-MB-468): −36.91%
Growth Percent ([1]; Breast Cancer, T-47D): 10.57%
Growth Percent ([1]; CNS Cancer, SF-268): 58.35%
Growth Percent ([1]; CNS Cancer, SNB-19): 64.60%
Growth Percent ([1]; CNS Cancer, SNB-75): 41.74%
Growth Percent ([1]; CNS Cancer, U251): 19.48%
Growth Percent ([1]; Colon Cancer, COLO 205): 38.45%
Growth Percent ([1]; Colon Cancer, HCC-2998): 97.70%
Growth Percent ([1]; Colon Cancer, HCT-116): −72.37%
Growth Percent ([1]; Colon Cancer, HT29): 10.26%
Growth Percent ([1]; Colon Cancer, KM12): 46.68%
Growth Percent ([1]; Colon Cancer, SW-620): −32.15%
Growth Percent ([1]; Leukemia, CCRF-CEM): 8.33%
Growth Percent ([1]; Leukemia, HL-60(TB)): 8.98%
Growth Percent ([1]; Leukemia, K-562): 10.77%
Growth Percent ([1]; Leukemia, MOLT-4): 10.99%
Growth Percent ([1]; Leukemia, RPMI-8226): −24.54%
Growth Percent ([1]; Leukemia, SR): 9.60%
Growth Percent ([1]; Melanoma, LOX IMVI): −8.01%
Growth Percent ([1]; Melanoma, M14): 58.13%
Growth Percent ([1]; Melanoma, MALME-3M): 29.71%
Growth Percent ([1]; Melanoma, MDA-MB-435): 35.34%
Growth Percent ([1]; Melanoma, SK-MEL-2): 72.46%
Growth Percent ([1]; Melanoma, SK-MEL-5): 62.03%
Growth Percent ([1]; Melanoma, SK-MEL-28): 77.86%
Growth Percent ([1]; Melanoma, UACC-62): 55.82%
Growth Percent ([1]; Melanoma, UACC-257): 73.38%
Growth Percent ([1]; Non-small Cell Lung Cancer, A549/ATCC): 79.28%
Growth Percent ([1]; Non-small Cell Lung Cancer, EKVX): 98.04%
Growth Percent ([1]; Non-small Cell Lung Cancer, HOP-62): 92.69%
Growth Percent ([1]; Non-small Cell Lung Cancer, HOP-92): 125.71%
Growth Percent ([1]; Non-small Cell Lung Cancer, NCI-H23): 70.16%
Growth Percent ([1]; Non-small Cell Lung Cancer, NCI-H226): 102.70%
Growth Percent ([1]; Non-small Cell Lung Cancer, NCI-H322M): 93.36%
Growth Percent ([1]; Non-small Cell Lung Cancer, NCI-H460): 65.57%
Growth Percent ([1]; Ovarian Cancer, IGROV1): 13.07%
Growth Percent ([1]; Ovarian Cancer, NCI/ADR-RES): 68.59%
Growth Percent ([1]; Ovarian Cancer, OVCAR-3): −31.67%
Growth Percent ([1]; Ovarian Cancer, OVCAR-4): 57.12%
Growth Percent ([1]; Ovarian Cancer, OVCAR-5): 116.69%
Growth Percent ([1]; Ovarian Cancer, OVCAR-8): 35.92%
Growth Percent ([1]; Ovarian Cancer, SK-OV-3): 107.77%
Growth Percent ([1]; Prostate Cancer, DU-145): 10.45%
Growth Percent ([1]; Prostate Cancer, PC-3): 39.10%
Growth Percent ([1]; Renal Cancer, 786-0): −3.03%
Growth Percent ([1]; Renal Cancer, A498): 100.87%
Growth Percent ([1]; Renal Cancer, ACHN): −17.29%
Growth Percent ([1]; Renal Cancer, CAKI-1): 47.13%
Growth Percent ([1]; Renal Cancer, RXF 393): −16.18%
Growth Percent ([1]; Renal Cancer, SN12C): 30.38%
Growth Percent ([1]; Renal Cancer, TK-10): 22.82%
Growth Percent ([1]; Renal Cancer, UO-31): −48.83%
